# Laboratory results as given in US5369096A, “Glycolipid derivatives” (The Nisshin Oil Mills, Ltd., priority 1992, dated 1994).
# Key:
# [1] = system: human normal lymphocytes adhering to vascular endothelial cells of the normal human umbilical cord; assay: inhibition of adhesion of human normal lymphocytes to rhIL1β-stimulated vascular endothelial cells, oily emulsion; format: cell-based; conditions: 20 μg/ml equivalent; for Amount adhered (fluorescence intensity): rhIL1β 200 U/ml, 485 nm/535 nm
# Method: A mixed solution of 6 mg of egg yolk lecithin (manufactured by Nacalaitesque Inc.), 30 μl of soybean oil J. P. (manufactured by Yoshida Seiyaku), 470 μl of distilled water for injection (manufacturedby Otsuka Seiyaku) and 125 μg of a compound of the invention was ultrasonicated (an output of 90 watts) for 10 min. to prepare an oily emulsion. The oily emulsion was further passed through a polycarbonate membrane filter having 0.2 μm average pore diameter (manufactured by Millipore) to provide an average particle size of 0.2 μm.
# Vascular endothelial cells of the normal human umbilical cord grown to confluence were stimulated in 24-well plates with 200 U/ml of rhIL1ββat 37° C. for 4 hours. After removal of the supernatant by suction, oily emulsions each prepared from a compound of the invention in an amount of 20 μg/ml equivalent were added except for the rhIL1β-untreated (Sample 1) and treated groups (Samples 2 and 3). The mixtures were then allowed to react at room temperature for 30 min. Subsequently, human normal lymphocytes with 2',7'-bis(carboxyethyl)-5,6-carboxyfluorescence acetoxymethyl ester fluorescent dye enclosed was added at a level of 2×10^6 cells per well followed by centrifugal operation at 100 rpm for 20 min. Each well was washed three times followed by addition of 0.5 ml of 0.5% Triton X-100 and stirring. The contents were divided into 100 μl portions in 96-well plates and measurement was made on a Baxter fluorometer at 485 nm/535 nm.
# 4: rhIL1β-treated group+2→3 sialyl Lewis X-containing oily emulsion dispersion-treated group
# 5: rhIL1β-treated group+compound 5E-containing oily emulsion dispersion-treated group (OEG)
# 6: rhIL1β-treated group+compound 5A-containing oily emulsion dispersion-treated group (2EG)
# 7: rhIL1β-treated group+compound 5B-containing oily emulsion dispersion-treated group (3EG)
# 8: rhIL1β-treated group+compound 5C-containing oily emulsion dispersion-treated group (4EG)
# 9: rhIL1β-treated group+compound 5D-containing oily emulsion dispersion-treated group (5EG)
# Amount adhered and percent inhibition of adhesion of human normal lymphocytes as measured from fluorescence intensity are shown in Table 5 below.
# [2] = system: HL-60 cells adhering to vascular endothelial cells of the normal human umbilical cord; assay: inhibition of adhesion of HL-60 cells to rhIL1β-stimulated vascular endothelial cells, liposome dispersion; format: cell-based; conditions: 20 μg/ml equivalent; for Amount of HL-60 cancer cells adhered (fluorescence intensity): rhIL1β 200 U/ml, 485 nm/535 nm
# Method: A solution of 200 μg of phosphatidylcholine, 100 μg of cholesterol, 7.5 μg of dicetyl phosphate and 50 μg of a compound of the invention in a mixture of chloroform/methanol=2/1 (ca. 1 ml) was evaporated under reduced pressure to dryness followed by addition of 0.25 ml of a phosphate-buffered saline solution. The mixture was ultrasonicated (an output of 90 watts) for 5 min. and stirred (a vortex mixer) for 5 min. to form a liposome dispersion.
# Vascular endothelial cells of the normal human umbilical cord grown to confluence were stimulated in 24-well plates with 200 U/ml of recombinant interleukin 1β (called hereafter rhIL1β, manufactured by Genzyme) at 37° C. for 4 hours. After removal of the supernatant by suction, liposome dispersions each prepared from a compound of the invention in an amount of 20 μg/ml equivalent were added except for the rhIL1β-untreated group (sample 1) and the treated groups (samples 2 and 3). The mixtures were then allowed to react at room temperature for 30 min. Subsequently, promyelocytic leukemia cell line HL-60 with 2',7'-bis(carboxyethyl)-5,6-carboxyfluorescene acetoxymethyl ester fluorescent dye enclosed was added at a level of 1×10^6 cells per well followed by centrifugal operation at 100 rpm for 20 min. Each well was washed three times followed by addition of 0.5 ml of 0.5% Triton X-100 and stirring. The contents were divided into 100 μl portions in 96-well plates and measurement was made on a Baxter fluorometer at 485 nm/535 nm.
# 4: rhIL1β-treated group+compound 5A-containing liposome dispersion-treated group (2EG)*
# 5: rhIL1β-treated group+compound 5B-containing liposome dispersion-treated group (3EG)*
# 6: rhIL1β-treated group+compound 5C-containing liposome dispersion-treated group (4EG)*
# 7: rhIL1β-treated group+compound 5D-containing liposome dispersion-treated group (5EG)*
# * 2EG, 3EG, 4EG or 5EG represents a compound of the invention containing 2, 3, 4 or 5 CH2 CH2 O units, respectively. The same shall apply hereinafter.
# % Inhibition of adhesion=100-[(fluorescence intensity for rhIL1β-treated group+compound-free or a compound-containing liposome dispersion-treated group)-(fluorescence intensity for rhIL1β-untreated group)/(fluorescence intensity for rhIL1β-treated group-fluorescence intensity for rhIL1β-untreatedgroup)]×100
SMILES,% Inhibition of adhesion [1] [%],Amount adhered (fluorescence intensity) [1],Amount of HL-60 cancer cells adhered (fluorescence intensity) [2],% Inhibition of adhesion ([2]; HL-60 cells) [%]
"CCCCCCCCCCCCCCC(CCCCCCCCCCCCCC)C(=O)Nc1ccc(COCCOCCO[C@@H]2O[C@H](CO)[C@@H](O[C@@H]3O[C@H](CO)[C@H](O)[C@H](O[C@]4(C(=O)O)C[C@H](O)[C@@H](NC(C)=O)[C@H]([C@H](O)[C@H](O)CO)O4)[C@H]3O)[C@H](O[C@@H]3O[C@@H](C)[C@@H](O)[C@@H](O)[C@@H]3O)[C@H]2O)cc1 [Compound 5A, O-(5-acetamido-3,5-dideoxy-D-glycero-α-D-galacto-2-nonulopyranosylonic acid)-(2→3)-O-β-D-galactopyranosyl-(1→4)-[O-α-L-fucopyranosyl-(1→3)-O-β-D-glucopyranosyl]-(1→1)-5-O-para-(2-tetradecylhexadecanoyl)aminobenzyl-3-oxapentane-1,5-diol]",65.8,9773,22769,80.04
"CCCCCCCCCCCCCCC(CCCCCCCCCCCCCC)C(=O)Nc1ccc(COCCOCCOCCO[C@@H]2O[C@H](CO)[C@@H](O[C@@H]3O[C@H](CO)[C@H](O)[C@H](O[C@]4(C(=O)O)C[C@H](O)[C@@H](NC(C)=O)[C@H]([C@H](O)[C@H](O)CO)O4)[C@H]3O)[C@H](O[C@@H]3O[C@@H](C)[C@@H](O)[C@@H](O)[C@@H]3O)[C@H]2O)cc1 [Compound 5B, O-(5-acetamido-3,5-dideoxy-D-glycero-α-D-galacto-2-nonulopyranosylonic acid)-(2→3)-O-β-D-galactopyranosyl-(1→4)-[O-α-L-fucopyranosyl-(1→3)-O-β-D-glucopyranosyl]-(1→1)-8-O-para-(2-tetradecylhexadecanoyl)aminobenzyl-3,6-dioxaoctane-1,8-diol]",–,10045,17957,–
"CCCCCCCCCCCCCCC(CCCCCCCCCCCCCC)C(=O)Nc1ccc(COCCOCCOCCOCCO[C@@H]2O[C@H](CO)[C@@H](O[C@@H]3O[C@H](CO)[C@H](O)[C@H](O[C@]4(C(=O)O)C[C@H](O)[C@@H](NC(C)=O)[C@H]([C@H](O)[C@H](O)CO)O4)[C@H]3O)[C@H](O[C@@H]3O[C@@H](C)[C@@H](O)[C@@H](O)[C@@H]3O)[C@H]2O)cc1 [Compound 5C, O-(5-acetamido-3,5-dideoxy-D-glycero-α-D-galacto-2-nonulopyranosylonic acid)-(2→3)-O-β-D-galactopyranosyl-(1→4)-[O-α-L-fucopyranosyl-(1→3)-O-β-D-glucopyranosyl]-(1→1)-11-O-para-(2-tetradecylhexadecanoyl)aminobenzyl-3,6,9-trioxaundecane-1,11-diol]",–,13563,26907,–
"CCCCCCCCCCCCCCC(CCCCCCCCCCCCCC)C(=O)Nc1ccc(COCCOCCOCCOCCOCCO[C@@H]2O[C@H](CO)[C@@H](O[C@@H]3O[C@H](CO)[C@H](O)[C@H](O[C@]4(C(=O)O)C[C@H](O)[C@@H](NC(C)=O)[C@H]([C@H](O)[C@H](O)CO)O4)[C@H]3O)[C@H](O[C@@H]3O[C@@H](C)[C@@H](O)[C@@H](O)[C@@H]3O)[C@H]2O)cc1 [Compound 5D, O-(5-acetamido-3,5-dideoxy-D-glycero-α-D-galacto-2-nonulopyranosylonic acid)-(2→3)-O-β-D-galactopyranosyl-(1→4)-[O-α-L-fucopyranosyl-(1→3)-O-β-D-glucopyranosyl]-(1→1)-5-O-para-(2-tetradecylhexadecanoyl)aminobenzyl-3,6,9,12-tetraoxatetradecane-1,14-diol]",–,10324,17405,–
